# Test results published in patent US20160101054A1, “SUSTAINED DELIVERY OF DRUGS FROM BIODEGRADABLE POLYMERIC MICROPARTICLES” (Yale University, priority 2008, published 2016).
# Assays:
# EGFR [1] = settings: in vivo; cited from earlier work
# EGFR [2] = biological target: T1, EGFR (Rattus norvegicus, UniProt G3V6K6); assay: Bioactivity of AG1478: western blot of phosphorylated EGFR in FR3T3 cells after EGF; format: cell-based; settings: for bioactivity by western blot of activated EGFR: FR3T3 cells expressing EGFR at normal levels, concentration equal to IC50, EGF 100 ng/mL
# T1 construct: cells expressing EGFR at normal levels; endogenous in cells; host or cells: FR3T3 (Fisher rat 3T3 fibroblasts)
# Description: Microsphere size was ascertained using a Multisizer™ 3 Coulter Counter® and confirmed visually via SEM. […] Relative bioactivity was determined using the gray mean value for each phospho-EGFR band.
smiles,measurement,setting,value
COc1cc2ncnc(Nc3cccc(Cl)c3)c2cc1OC [AG1478],"EGFR upregulation and activation of astrocytes, survival of RGCs",EGFR [1],reverses this upregulation and activation of astrocytes and increases the survival of RGCs
same,bioactivity by western blot of activated EGFR,EGFR [2]; listed as non-encapsulated AG1478,89±4.5%
same,bioactivity by western blot of activated EGFR,EGFR [2]; listed as non-encapsulated inhibitor,89±2.7%
same,inhibition in FR3T3 cells,EGFR [2]; at 3 mM (~[…] polymer),greater than 95%
